Measurements taken from patent publication US4279926A, “Method of relieving pain and treating inflammatory conditions in warm-blooded animals” (priority 1974, dated 1981).
≈ marks a conversion by molar mass, not a printed value. Where “and” joins values, the source holds several entries; their conditions need not be identical. Equal values may be shown once. Where a name gives a salt, the structure may show the parent alone. Read-outs that look alike come from different tables or passages of the source.

How the values were obtained:
[1] = test system: patients with degenerative osteoarticular affections; assay: Clinical trial, i.m. 500 mg/day, efficacy in degenerative osteoarticular diseases; type: in vivo, human
Text: In a subsequent clinical trial, 33 human subjects were used with an average age of 73.8±6.8, the minimum age being 61 and the maximum age 88; 7 of the subjects were males and the remaining 26 were female.
These subjects presented osteoarticular diseases of a chronic or subacute type, in which, during the period of observation, an evolutive flare-up of a pre-existing mono- or polyarticular arthrosic process was verified, as well as the appearance ex novo of an arthralgic picture with functional impotence of the osteoarticular segments which previously appeared to be undamaged.
In these cases, the parenteral route of administration was used so as to obtain, in view of the watersoluble characteristics of the test material, a more rapid symptomatic control. Furthermore, this method of administration permits a ready control of any differences in gastric tolerance as compared with the oral administration route, which is more commonly used.
The test substance was injected in the morning between 8 and 8.30 a.m. Before starting the therapy, midway through it and immediately after it, the following parameters were controlled in order to ascertain how effective the treatment had been: Lansbury's dynamometer (the values of muscular strength were expressed in kg.); the range of articular flexion and extension (the basal finding was expressed conventionally with the notations "+" to "+++," the successive findings being assessed as "unchanged," "increased" or "decreased," compared with the pre-treatment findings; subjective algesic symptomatology, the criteria of evaluation being similar to those adopted for determining the range of articular flexion and extension; finger tip-floor distance test, obtained by measuring the distance between the tips of the fingers and the floor when the subject bends forward; and morning stiffness, this being the time taken for the disappearance of stiffness on awakening.
Thus, for the evaluation of the test substance, it was thus possible to have 3 quantitative parameters (morning stiffness, Lansbury's index and finger tip-floor distance) and 2 semiquantitative parameters (pain symptomatology and flexo-extension strength). This is sufficient to obtain a reliable therapeutic profile in the test subjects, where the subjective element plays a predominant role in determining the clinical picture, as well as the therapeutic response.
The numerical data obtained were analysed statistically by means of the calculation of the Student "t" test on the mean values found before and after treatment.

[2] = total mean values, especially during the first 3 hours
Method: The blood levels were then determined after 0.5, 1, 1.5, 2, 3, 4 and 5 hours.

Solubility = type: physicochemical
pH of aqueous solution = type: physicochemical
occult blood in faeces = assay: Occult blood in faeces (benzidine test); type: in vivo, human
Method: In cases with a history of gastroenteric disorders, even if not drug-dependent, the faeces were tested for the presence of occult blood, using the benzidine test.

Stability = details: salt or its aqueous solution
[3] = test system: pain threshold in the inflamed paw (carrageenin oedema); assay: Pain threshold under pressure of the inflamed (carrageenin) rat paw (analgesic action); details: Table 3, 100 mg/kg p.o. (lysine salt: 60 as active substance)
Method: At intervals after the treatment, the size of the treated paw and its sensitivity to pain under pressure were evaluated.

[4] = test system: carrageenin oedema, inflamed paw; assay: Carrageenin oedema of the rat paw (anti-inflammatory action, paw size/volume); type: in vivo, male Wistar rats; details: Table 2, 100 mg/kg p.o. (lysine salt: 60 as active substance)
gastro-intestinal mucosa = details: cited from earlier work
[5] = of 18 cases with major initial involvement
[6] = end of experiment, of 14 positive before treatment

For `CC(C)Cc1ccc(C(C)C(=O)O)cc1` (racemic) [Example 1], the “Cases with increase of flexo-extension strength” value ([1]; 33 patients, i.m. 500 mg/day) was 36.3%, the “Cases with spontaneous pain reduced following treatment” value ([1]; 33 patients, i.m. 500 mg/day) was 27 cases and the “Cases with spontaneous pain reduced following treatment (%)” value ([1]; 33 patients, i.m. 500 mg/day) was 81.8%. The “Morning stiffness, mean after treatment” value ([1]; Table 7, after i.m. 500 mg/day, s.d. ± 8.2) was 18.93 min, the “Morning stiffness, mean before treatment” value ([1]; Table 7, before treatment (baseline), s.d. ± 6.62) was 20.17 min and the “Lansbury test, mean before treatment” value ([1]; Table 7, before treatment (baseline), s.d. ± 9.19) was 30.96 kg. For the same compound, the “Fingertip-floor distance, mean before treatment” value ([1]; Table 7, before treatment (baseline), s.d. ± 12.4) was 33.17 cm, the “Fingertip-floor distance, after treatment” value ([1]; Table 7, i.m. 500 mg/day, individual patients in order of case no. (cases 7, 8, 9, 14, 27-31, 33 not given), listed as lysine isobutylphenyl propionate) was 45 cm and 40 cm and 30 cm and 28 cm and 15 cm and 11 cm and 6 cm and 20 cm and 24 cm and 48 cm and 38 cm and 18 cm and 46 cm and 35 cm and the “Morning stiffness, after treatment” value ([1]; Table 7, i.m. 500 mg/day, individual patients in order of case no. (cases 8, 9, 14, 26 not given), listed as lysine isobutylphenyl propionate) was 30 min and 10 min and 0 min and 8 min and 2 min and 12 min and 25 min and 15 min and 11 min and 5 min and 9 min and 23 min and 18 min and 22 min and 20 min. The Radiologic changes ([1]; after treatment vs before) was “no radiologic changes”, the “Lansbury test, pre- vs post-treatment mean values” ([1]; i.m. 500 mg/day) was “similar” and the “Overall safety and clinical efficacy” value ([1]; i.m. 500 mg/day) was “safe and clinically effective”. For the same compound, the “P, difference between pre- and post-treatment duration of morning stiffness” value ([1]; i.m. 500 mg/day, Student t test) was under 0.01, the “Patients with "excellent" effect” value ([1]; i.m. 500 mg/day, of 33) was 25 patients and the “Patients with "fair" result” value ([1]; i.m. 500 mg/day, of 33) was 4 patients. For the same compound, the “Patients with "poor" or "nil" effect” value ([1]; i.m. 500 mg/day, of 33) was 4 patients, the “Patients with marked improvement of flexo-extension strength” value [1, 5] was 10 patients and the “Patients with marked improvement of flexo-extension strength (%)” value [1, 5] was 55.5%. For the same compound, the “Blood levels compared with oral sodium salt” value [2] was “higher blood levels are always obtained, especially during the first 3 hours, than after the oral administration of the sodium salt”, the solubility (Solubility; in water) was about 400 mg/mL (≈ 1940 mM) and the “pH of aqueous solution” value (pH of aqueous solution) was “substantially neutral pH”. The “Anaemia in blood counts” value (occult blood in faeces; end of experiment) was “did not reveal any cases of anaemia which could be considered pathological or at the most suspect”, the “Faecal occult blood: haematic loss disappeared” value (occult blood in faeces; [6]) was 1 case and the “Faecal occult blood: haematic loss reduced” value (occult blood in faeces; [6]) was 6 cases. For the same compound, the “Faecal occult blood: haematic loss slightly increased” value (occult blood in faeces; [6]) was 2 cases, the “Faecal occult blood: haematic loss unchanged” value (occult blood in faeces; [6]) was 5 cases and the “Faecal occult blood positive in pretreatment phase” value (occult blood in faeces; pretreatment (baseline)) was 14 subjects.

With `CC(C)Cc1ccc(CC(=O)O)cc1` [Example 14, D,L-arginine salt of 2-(4-isobutyl-phenyl)-acetic acid] the “Stability” value (Stability) was “stable solution”, the “Solubility in water” value (Solubility) was “moderately soluble in water” and the “pH of aqueous solution” value (pH of aqueous solution) was “pH close to neutrality”.

For `CCCCC1C(=O)N(c2ccccc2)N(c2ccccc2)C1=O` [Phenyl-butazone, phenylbutazone], the “Pain threshold - carrageenin oedema” value ([3]; 0 hrs, control 101.7 ± 3.19) was 105.3 ± 3.03 g, the “Pain threshold - carrageenin oedema” value ([3]; 3 hrs, control 52.7 ± 2.00, **p = 0.01) was 122.7 ± 2.92 g and the “Pain threshold - carrageenin oedema” value ([3]; 5 hrs, control 51.3 ± 2.15, **p = 0.01) was 83.7 ± 4.04 g. The “Paw volume - carrageenin oedema” value ([4]; 0 hrs, control 1.16 ± 0.02) was 1.18 ± 0.02 mL, the “Paw volume, % variation referred to control” value ([4]; 3 hrs) was -25.4% and the “Paw volume, % variation referred to control” value ([4]; 4 hrs) was -23.6%. For the same compound, the “Paw volume - carrageenin oedema” value ([4]; 4 hrs, control 2.29 ± 0.05, **p = 0.01) was 1.75 ± 0.05 mL, the “Paw volume, % variation referred to control” value ([4]; 5 hrs) was -22.0% and the “Paw volume - carrageenin oedema” value ([4]; 5 hrs, control 2.36 ± 0.06, **p = 0.01) was 1.84 ± 0.05 mL. For the same compound, the “Undesired side-effects (gastro-intestinal intolerance, ulceration) compared with phenyl-alkanoic acids” value (gastro-intestinal mucosa; known from the art) was “also show these undesired side-effects in an even more pronounced form”.

For `CC(=O)Oc1ccccc1C(=O)O` [aspirin], the “Undesired side-effects (gastro-intestinal intolerance, ulceration) compared with phenyl-alkanoic acids” value (gastro-intestinal mucosa; in vivo) is listed as “also show these undesired side-effects in an even more pronounced form”.
